Experiments:
eIF1-eIF4G1 complex = target: T1, eIF1-eIF4G1 complex (Homo sapiens, UniProt Q04637); assay: Co-immunoprecipitation of endogenous eIF4G1 with HA-eIF1; assay type: cell-based; settings: ER stress, Thapsigargin 1 μM, 1 hour
T1 construct: co-immunoprecipitation of endogenous eIF4G1 in HEK293T cells expressing HA-eIF1 or HA-eIF4E was performed; endogenous in cells; host or cells: HEK293T (eIF4G1 endogenous; HA-eIF1 transfected)
Method: (§1) FIGS. 2A-C: The effect of i14G1-10 and i14G1-12 on eIF1-eIF4G1 and eIF4E-eIF4G1 complexes. (2A-B) HA-eIF1 and HA-eIF4E were each transfected into HEK293T cells and 48 h after transfection cells were treated with DMSO or i14G1-10 (2A) or i14G1-12 (2B) for 4 h, followed by immunoprecipitation of HA-eIF1 or HA-eIF4E using anti-HA-agarose beads. Western blot was run to check co-immunoprecipitation of endogenous eIF4G1 with HA-eIF1 or HA-eIF4E. The graphs represent the co-immunoprecipitation of eIF4G1 with HA-eIF1 (right) or HA-eIF4E (left). Co—IP data shown as mean±SEM of 4-7 independent experiments. The asterisks denote statistically significant difference compared to DMSO, according to Student's t-tests (one-tailed, paired). *p<0.05. (2C) HEK293T cells were treated with DMSO, i14G1-10, or i14G1-12 for 4 h, followed by cell lysis. Respective cell lysates were incubated with cap analog (γ-Aminohexyl-m7GTP) beads for 2 h to precipitate bound eIF4E. Western blot was performed to check co-precipitation of eIF4G1 along with eIF4E on the cap-analog beads. The graph represents the binding fraction of eIF4G1 and eIF4E to the cap-analog beads (mean±SEM) with DMSO (black), i14G1-10 (blue), and i14G1-12 (red), n=6. The asterisks denote statistically significant difference compared to DMSO, according to Student's t-tests (one-tailed, paired). *p<0.05; **p<0.01.
(§2) Co-immunoprecipitation. HEK293T cells were transfected with 5 μg of HA-eIF1 or HA-eIF4E plasmids along with 10 ng GFP plasmid to check for transfection efficiency using Jetprime reagent as per manufacturer's protocol. After 48 h, HA-eIF1 and HA-eIF4E expressing HEK293T cells were incubated with DMSO, i14G1-10 (20 μM), and […] (10 μM). 4 h later, cells were lysed using IP buffer (20 mM Tris pH8, 125 mM NaCl, 10% glycerol, 50 mM NaF, 1 mM […], 0.5% NP-40, and 0.2 mM EDTA) supplemented with fresh protease inhibitor cocktail (1:100) and PMSF 200 μM (1:100). Protein extract was taken for immunoprecipitation using either monoclonal anti-HA-agarose antibody (Sigma) or control IgG antibody in IP buffer, at 4° C. for 2 hours. […]

eIF4E-eIF4G1 complex = target: T2, eIF4E-eIF4G1 complex (Homo sapiens, UniProt Q04637); assay: Co-immunoprecipitation of endogenous eIF4G1 with HA-eIF4E; assay type: cell-based; settings: ER stress, Thapsigargin 1 μM, 1 hour
T2 construct: co-immunoprecipitation of endogenous eIF4G1 in HEK293T cells expressing HA-eIF1 or HA-eIF4E was performed; endogenous in cells; host or cells: HEK293T (eIF4G1 endogenous; HA-eIF4E transfected)
Method: as §1, §2

[1] = tested on: leaky scanning from cap-proximal AUG in HEK293T cells; assay: Leaky scanning GFP reporter with cap-proximal upstream AUG, western blot; assay type: cell-based, human; settings: upstream AUG with 16 nt 5′UTR
Text: FIGS. 1A-G: Identification and initial characterization of eIF1-eIF4G1 inhibitors using a high-throughput drug screen (HTS). (1A) A flowchart describing the steps of the recombinant eIF1-eIF4G1 split-RL HTS. (1B) Selection of drugs that inhibit leaky scanning. HEK293T cells were transfected with a short 5′UTR bearing GFP reporter gene described on the top, treated with the indicated HTS hits, and then analyzed by western blot with GFP antibody. US and DS denote upstream and downstream AUG initiation sites, respectively. (1C) A graph showing the change in the ratio of the upstream and downstream AUG following treatment with the indicated drugs. (1D) The chemical structure of the eIF1-eIF4G1 inhibitors, i14G1-10 and i14G1-12. (1E) His-tagged eIF4G1 and His-tagged eIF1 were expressed in BL21 bacteria and purified using nickel NTA beads. Purified His-tagged eIF4G1 and His-tagged eIF1 were incubated with the indicated doses of either i14G1-10 (0-256 μM) or i14G1-12 (0-256 μM) for 5 minutes, followed by fluorescence measurement. For eIF4G1 excitation was at 280 nm and emission was at 350 nm. For eIF1 excitation was at 274 nm and emission was at 304 nm. The data shown represent three independent replicates. IC50 was calculated using Graphpad prism 9. (1F-1G) Western blots of GST pull down. […]
To address the functional significance of the temporal eIF1-eIF4G1 interaction, the inventors set out to develop pharmacological tools against this complex. To this end, the split-Renilla luciferase (RL) complementation assay previously found to be an efficient readout of eIF1 and eIF4G1 interaction in mammalian cells and a highly sensitive and powerful approach for the identification of protein-protein inhibitors was used. […] As knockdown of either eIF1 or eIF4G1 and interference with eIF1-eIF4G1 interaction led to the arrest of leaky scanning from cap-proximal AUG, the selected compounds were analyzed for their effect on initiation from cap-proximal AUG. […]

T2 sequence (Q04637 whole entry): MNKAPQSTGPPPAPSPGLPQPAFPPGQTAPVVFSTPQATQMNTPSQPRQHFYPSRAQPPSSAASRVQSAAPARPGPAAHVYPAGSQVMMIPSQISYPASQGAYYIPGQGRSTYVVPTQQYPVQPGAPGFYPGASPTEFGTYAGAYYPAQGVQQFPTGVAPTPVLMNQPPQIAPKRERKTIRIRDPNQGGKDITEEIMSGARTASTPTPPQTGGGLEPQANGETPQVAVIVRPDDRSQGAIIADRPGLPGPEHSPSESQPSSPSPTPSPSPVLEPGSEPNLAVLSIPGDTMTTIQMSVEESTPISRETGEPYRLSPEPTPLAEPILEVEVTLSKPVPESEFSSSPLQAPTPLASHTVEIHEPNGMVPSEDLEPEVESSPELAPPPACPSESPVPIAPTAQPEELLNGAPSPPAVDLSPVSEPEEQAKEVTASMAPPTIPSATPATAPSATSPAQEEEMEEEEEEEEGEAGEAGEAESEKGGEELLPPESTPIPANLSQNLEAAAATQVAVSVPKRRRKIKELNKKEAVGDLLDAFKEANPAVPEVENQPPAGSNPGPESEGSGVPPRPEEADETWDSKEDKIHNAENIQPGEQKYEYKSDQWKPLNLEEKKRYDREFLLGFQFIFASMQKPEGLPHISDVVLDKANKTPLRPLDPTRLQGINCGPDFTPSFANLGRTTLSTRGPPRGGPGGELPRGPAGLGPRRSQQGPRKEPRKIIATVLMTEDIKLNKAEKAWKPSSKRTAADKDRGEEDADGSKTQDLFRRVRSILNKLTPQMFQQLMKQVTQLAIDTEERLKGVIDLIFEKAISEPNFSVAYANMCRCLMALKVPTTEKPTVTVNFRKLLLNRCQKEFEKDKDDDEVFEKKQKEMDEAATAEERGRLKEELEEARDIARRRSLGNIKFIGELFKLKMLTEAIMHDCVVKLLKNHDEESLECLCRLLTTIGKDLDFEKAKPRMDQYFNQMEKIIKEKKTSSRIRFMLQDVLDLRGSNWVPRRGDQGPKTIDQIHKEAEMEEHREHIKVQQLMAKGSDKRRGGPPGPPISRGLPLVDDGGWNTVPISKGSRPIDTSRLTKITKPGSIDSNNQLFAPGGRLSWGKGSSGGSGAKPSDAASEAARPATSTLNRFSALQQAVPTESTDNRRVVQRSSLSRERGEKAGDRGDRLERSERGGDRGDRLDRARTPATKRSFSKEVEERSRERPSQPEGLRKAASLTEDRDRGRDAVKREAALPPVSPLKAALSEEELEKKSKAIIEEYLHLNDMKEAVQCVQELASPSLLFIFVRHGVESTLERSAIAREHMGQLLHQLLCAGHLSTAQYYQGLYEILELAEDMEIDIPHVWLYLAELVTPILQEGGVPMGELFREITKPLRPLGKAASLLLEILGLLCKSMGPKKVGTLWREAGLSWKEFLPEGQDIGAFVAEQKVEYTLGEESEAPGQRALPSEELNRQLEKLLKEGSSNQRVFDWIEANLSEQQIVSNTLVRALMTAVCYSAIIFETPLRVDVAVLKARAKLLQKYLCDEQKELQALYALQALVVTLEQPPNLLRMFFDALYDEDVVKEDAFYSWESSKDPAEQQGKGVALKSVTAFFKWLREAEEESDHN
T2 sequence (P06730 whole entry partner): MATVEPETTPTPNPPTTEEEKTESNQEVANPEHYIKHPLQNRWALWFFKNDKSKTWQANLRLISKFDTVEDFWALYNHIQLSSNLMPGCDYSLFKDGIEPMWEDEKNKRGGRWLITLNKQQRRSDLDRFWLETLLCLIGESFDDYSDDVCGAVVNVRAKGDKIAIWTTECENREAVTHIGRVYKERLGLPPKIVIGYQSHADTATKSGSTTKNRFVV
T1 sequence (Q04637 whole entry, one chain of several): as the sequence (Q04637 whole entry) above

Row | SMILES | reduction of co-precipitated eIF4G1 with HA-eIF1 (eIF1-eIF4G1 complex) [%] | level of co-precipitated eIF4G1 with HA-eIF4E (eIF4E-eIF4G1 complex) | upstream to downstream AUG ratio (leaky scanning) [1]
1 | C/C=C(/C)C(=O)O[C@H]1C(C)=C2[C@H]([C@@H]1OC(=O)CCCCCCC)[C@@](C)(OC(C)=O)C[C@H](OC(=O)CCC)[C@@]1(O)[C@H]2OC(=O)[C@@]1(C)O [Thapsigargin, reference compound] | 50 | no significant change | 
2 | Cc1ccc(/C(=C\C=C(C#N)C#N)Sc2nc3ccccc3s2)cc1 [i14G1-11] |  |  | selectively changed the upstream to downstream ratio by inhibiting leaky scanning from the cap-proximal AUG

From patent US20250090510A1, “eIF4G1-eIF1 INHIBITORS AND USE THEREOF” (YEDA RESEARCH AND DEVELOPMENT CO. LTD., priority 2022, published 2025)
